Reference: EP4818177A1, “TRICYCLIC DERIVATIVE INHIBITOR, AND PREPARATION METHOD AND USE THEREFOR” (Shanghai Hansoh Biomedical Co., Ltd., priority 2023, dated 2025)

Legend:
[1] = molecular target: T1, PRMT5/MEP50-MTA protein complex (Homo sapiens, UniProt O14744); assay: Thermal shift assay: change in melting temperature of the PRMT5/MEP50-MTA protein complex; type: binding; conditions: compound 8 µM, PRMT5/MEP50 2 µM, MTA 2 µM; Tm minus DMSO vehicle control
T1 construct: purchased Viva Biotech
Source text: Test Example 1: Determination of the ability of the compounds of the present invention to improve the thermal stability (melting temperature) of the PRMT5/MEP50-MTA protein complex.
1. Experimental objective: The objective of this test example is to determine the ability of the compound to improve the thermal stability of the PRMT5/MEP50-MTA protein complex, resulting in an increase in the protein melting temperature. 2. Experimental instruments: Quantitative PCR instrument (Quantstudio6 Flex) was purchased from Life Technologies; pipettes were purchased from Eppendorf or Rainin. 3. Experimental reagents and consumables: PRMT5/MEP50 protein was prepared by Viva Biotech; HEPES was purchased from Thermo Fisher Scientific (Cat. No. 15630080); DTT was purchased from Sigma (Cat. No. 43816-10ml); sodium chloride was purchased from Invitrogen (Cat. No. AM9760G); Protein Thermal Shift™ Dye Kit was purchased from Thermo Fisher Scientific (Cat. No. 4461146); methylthioadenosine (MTA) was purchased from Sigma (Cat. No. D5011). 4. Experimental methods: In this experiment, the thermal shift method was used to measure the change in the melting temperature (Tm) of the PRMT5/MEP50-MTA protein complex before and after compound binding, thereby characterising the ability of the compound to improve the thermal stability of the PRMT5/MEP50-MTA protein complex. A solution containing 50 mM HEPES, 10 mM DTT, 2 µM MTA, SYPRO Orange and 250 mM NaCl was prepared as the experimental buffer. Human PRMT5/MEP50 protein was added to a final concentration of 2 µM, and the mixture was incubated at room temperature for 30 minutes. The above reaction mixture was aliquoted into 8-strip PCR tubes at 19.5 µL per tube. Then 0.5 µL of test compound or DMSO was added to each tube, providing a total reaction volume of 20 µL and a final compound concentration of 8 µM. 2.5% DMSO was set as the vehicle control. After incubation at room temperature for 10 minutes, the PCR tubes were placed in a PCR instrument, and the melt curve function was selected to measure the melting temperature of the PRMT5/MEP50-MTA protein complex in different treatment groups (heated from 25°C to 95°C, 0.03°C/s). 5. Experimental data processing method: The experimental data files from the PCR instrument were imported into the thermal shift software to obtain the melting temperature (Tm) for each treatment group.

[2] = Pharmacokinetics in rats (plasma) after oral administration; conditions: male, SD, rat, 5 mg/kg
Experimental: Test Example 4: Determination of the pharmacokinetics of the compounds of the present invention in rats (plasma) after oral administration.
Study objective: SD rats were used as test animals to study the pharmacokinetic behaviour of the following example compounds in rats (plasma) after oral administration at a dose of 5 mg/kg. […] Test scheme 2.1 Test drugs: Vehicle formula: 0.5% CMC-Na (1% Tween 80); the examples of the present invention, prepared in house. 2.2 Test animals: 3 SD rats per group, male, purchased from Shanghai Bikai Keyi Biotechnology Co., Ltd., with animal license number (SCXK (Shanghai) 2018-0006, No.20180006037467). 2.3 Administration: 3 SD rats per group, male, were fasted overnight and then respectively administered PO at a dose of 5 mg/kg and a volume of 10 mL/kg. 2.4 Sample collection: 0.2 mL of blood was collected from the jugular vein of rats before administration and at 0, 0.25, 0.5, 1, 2, 4, 6, 8 and 24 h after administration, and placed in EDTA-K2test tubes, and the test tubes were centrifuged at 6,000 rpm at 4°C for 6 min to separate the plasma, which was stored at -80°C. The animals were fed 4 h after administration. 2.5 Sample treatment • 1) 160 uL of acetonitrile was added to 40 uL of plasma sample for precipitation, and after mixing, the mixture was centrifuged at 3,500 × g for 5-20 minutes. • 2) 100 uL of the treated supernatant solution was taken for LC/MS/MS analysis to determine the concentration of the test compounds. 2.6 Liquid phase analysis • Liquid phase conditions: Shimadzu LC-20AD pump; • Mass spectrometry conditions: AB Sciex API 4000 mass spectrometer; • Chromatographic column: phenomenex Gemiu 5 um C18 50 × 4.6 mm; • Mobile phase: solution A: 0.1% formic acid in water, solution B: methanol; • flow rate: 1.0 mL/min; Elution time: 0-4.0 min, with eluents as follows:
Experimental results and analysis: The main pharmacokinetic parameters were calculated using WinNonlin 8.2.

T1 sequence (O14744 whole entry): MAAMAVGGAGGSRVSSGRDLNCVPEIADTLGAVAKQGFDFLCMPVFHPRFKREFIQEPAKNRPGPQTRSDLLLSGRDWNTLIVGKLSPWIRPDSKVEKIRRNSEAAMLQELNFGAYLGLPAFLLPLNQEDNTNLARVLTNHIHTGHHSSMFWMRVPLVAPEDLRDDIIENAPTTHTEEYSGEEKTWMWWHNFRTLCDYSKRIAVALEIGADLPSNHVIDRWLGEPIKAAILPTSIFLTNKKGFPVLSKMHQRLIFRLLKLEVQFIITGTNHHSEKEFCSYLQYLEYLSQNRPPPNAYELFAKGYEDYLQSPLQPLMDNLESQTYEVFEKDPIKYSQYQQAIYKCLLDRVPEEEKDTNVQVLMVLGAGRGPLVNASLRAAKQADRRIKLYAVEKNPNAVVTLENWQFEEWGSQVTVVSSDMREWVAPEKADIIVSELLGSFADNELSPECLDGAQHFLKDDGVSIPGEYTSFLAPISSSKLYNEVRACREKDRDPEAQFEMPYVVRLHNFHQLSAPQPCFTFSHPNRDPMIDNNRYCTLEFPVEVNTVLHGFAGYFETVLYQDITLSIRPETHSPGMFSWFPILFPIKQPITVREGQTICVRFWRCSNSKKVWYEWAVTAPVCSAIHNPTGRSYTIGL
T1 sequence (Q9BQA1 whole entry partner): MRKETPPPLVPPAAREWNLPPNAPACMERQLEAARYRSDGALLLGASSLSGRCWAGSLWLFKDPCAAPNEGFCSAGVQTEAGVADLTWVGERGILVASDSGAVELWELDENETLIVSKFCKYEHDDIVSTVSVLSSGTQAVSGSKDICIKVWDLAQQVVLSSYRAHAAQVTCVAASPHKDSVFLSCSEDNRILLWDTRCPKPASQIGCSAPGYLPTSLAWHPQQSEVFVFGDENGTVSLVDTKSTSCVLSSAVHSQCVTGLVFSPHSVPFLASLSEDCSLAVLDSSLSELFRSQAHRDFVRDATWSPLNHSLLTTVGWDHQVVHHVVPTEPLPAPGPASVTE

SMILES	ΔTm at 8 µM [1] [°C]	also measured
CNN(C(=O)c1cc2c3c(c(N)nc2cc1F)COC3)C1COCc2nc(C(F)(F)F)ccc21 (racemic) [Example 306]	12.7	
CNN(C(=O)c1cc2c(cn1)nc(N)c1cncn12)C1COc2cc(S(F)(F)(F)(F)F)ccc21 (racemic) [Example 385, 4-Amino-N'-methyl-N-(6-(pentafluoro-6-sulphanyl)-2,3-dihydrobenzofuran-3-yl)imidazo [1,5-a] pyrido [3,4-e] pyrazine-8-carbohydrazide]	11.6	
CNN(C(=O)c1ccc2nc(N)c3cnn(C)c3c2c1)C1COc2cc(S(F)(F)(F)(F)F)ccc21 (racemic) [Example 450, 4-Amino-N',1-dimethyl-N-(6-(pentafluoro-6-sulphanyl)-2,3-dihydrobenzofuran-3-yl)-1H-pyrazolo[4,3-c]quinoline-8-carbohydrazide]	12	
[2H]C([2H])([2H])NN(C(=O)c1cc2c3c(c(N)nc2cc1C)COC3)C1COCc2c1ccn1c(C(F)(F)F)cnc21 (single isomer, unassigned) [Example 357-P1]		ΔTm (°C) [1]: 12.45 °C
CNN(C(=O)c1cc2c(cn1)nc(N)c1cncn12)C1COc2cc(S(F)(F)(F)(F)F)ccc21 (single isomer, unassigned) [Example 385-P1]	14	
CNN(C(=O)c1cc2c(cn1)nc(N)c1cncn12)C1COc2cc(S(F)(F)(F)(F)F)ccc21 (single isomer, unassigned) [Example 385-P2]		ΔTm (°C) [1]: 12.31 °C
CN(C(=O)c1ccc2nc(N)c3cnn(C)c3c2c1)[C@@H]1COCc2c1ccn1cc(Br)nc21 [Example 37-P1, (S)-4-amino-N-(2-bromo-7,10-dihydro-8H-imidazo[1,2-a]pyrano[3,4-c]pyridin-7-yl)-N,1-dimethyl-1H-pyrazolo[4,3-c]quinoline-8-carboxamide]	10.5	
Cc1cc2nc(N)c3cncn3c2cc1C(=O)N(C)C1COCc2c1ccn1cc(C(F)(F)F)nc21 (centres unmarked) [Example 39, 4-Amino-N,7-dimethyl-N-(2-(trifluoromethyl)-7,10-dihydro-8H-imidazo[1,2-a]pyrano[3,4-c]pyridin-7-yl)imidazo[1,5-a]quinoxaline-8-carboxamide]	11.7	
Cc1cc2nc(N)c3cncn3c2cc1C(=O)N(C)C1COCc2c1ccc1nc(C(F)(F)F)cn21 (centres unmarked) [Example 48, 4-Amino-N,7-dimethyl-N-(8-(trifluoromethyl)-3,4-dihydro-1H-imidazo[1,2-a]pyrano[4,3-e]pyridin-4-yl)imidazo[1,5-a]quinoxaline-8-carboxamide]	11.7	
CN(C(=O)c1ccc2nc(N)c3cnn(C)c3c2c1)C1COCc2c1ccc1cc(C(F)(F)F)cnc21 (centres unmarked) [Example 68, 4-Amino-N,1-dimethyl-N-(3-(trifluoromethyl)-7,10-dihydro-8H-pyrano[4,3-h]quinolin-7-yl)-1H-pyrazolo[4,3-c]quinoline-8-carboxamide]	10.4	
CN(C(=O)c1ccc2nc(N)c3cnn(C)c3c2c1)C1COCc2c1ccc1nc(C(F)(F)F)cn21 (centres unmarked) [Example 81, 4-Amino-N,1-dimethyl-N-(8-(trifluoromethyl)-3,4-dihydro-1H-imidazo[1,2-a]pyrano[4,3-e]pyridin-4-yl)-1H-pyrazolo[4,3-c]quinoline-8-carboxamide]	10.4	
Cc1cc2nc(N)c3cncn3c2cc1C(=O)N(C1CC(=C(F)F)C1)C1COCc2c1ccn1c(C(F)(F)F)cnc21 (centres unmarked) [Example 144, 4-Amino-N-[3-(difluoromethylene)cyclobutyl]-7-methyl-N-[5-(trifluoromethyl)-12-oxa-3,6-diazatricyclo[7.4.0.02,6]trideca-1(9),2,4,7-tetraen-10-yl]imidazo[1,5-a]quinoxaline-8-carboxamide]	10.2	
Cc1cc2nc(N)c3cncn3c2cc1C(=O)N(C)C1COCc2c1ccn1c(N=S(C)(C)=O)cnc21 (centres unmarked) [Example 146, 4-Amino-N-(3-((dimethyl(carbonyl)-16-sulphanylidene)amino)-7,10-dihydro-8H-imidazo[1,2-a]pyrano[3,4-c]pyridin-7-yl)-N,7-dimethylimidazo[1,5-a]quinoxaline-8-carboxamide]	10.2	
CN(C(=O)c1cc2c(cc1F)nc(N)c1cncn12)C1COCc2c1ccn1c(C(F)(F)F)c(C(=O)N3CC(=C(F)F)C3)nc21 (centres unmarked) [Example 234, 4-Amino-N-(2-(3-(difluoromethylene)azetidine-1-carbonyl)-3-(trifluoromethyl)-7,10-dihydro-8H-imidazo[1,2-a]pyrano[3,4-c]pyridin-7-yl)-7-fluoro-N-methylimidazo[1,5-a]quinoxaline-8-carboxamide]	10.9	
CN(C(=O)c1cc2c(cc1F)nc(N)c1cncn12)C1COCc2c1ccn1c(C(F)=C3CCCCC3)cnc21 (centres unmarked) [Example 240, 4-Amino-N-(3-(cyclohexylidenefluoromethyl)-7,10-dihydro-8H-imidazo[1,2-a]pyrano[3,4-c]pyridin-7-yl)-7-fluoro-N-methylimidazo[1,5-a]quinoxaline-8-carboxamide]	10.8	
CNN(C(=O)c1cc2c(cc1C)nc(N)c1cncn12)C1COCc2nc(C(F)(F)F)ccc21 (centres unmarked) [Example 278, 4-Amino-N',7-dimethyl-N-(2-(trifluoromethyl)-5,8-dihydro-6H-pyrano[3,4-b]pyridin-5-yl)imidazo[1,5-a]quinoxaline-8-carbohydrazide]	12.7	
CNN(C(=O)c1cc2c(cc1C)nc(N)c1cncn12)[C@@H]1COCc2nc(C(F)(F)F)ccc21 [Example 278-P1, (S)-4-amino-N',7-dimethyl-N-(2-(trifluoromethyl)-5,8-dihydro-6H-pyrano[3,4-b]pyridin-5-yl)imidazo[1,5-a]quinoxaline-8-carbohydrazide]	12.6	
Nc1nc2cc(F)c(C(=O)N(N)C3COCc4nc(C(F)(F)F)ccc43)cc2n2cncc12 (centres unmarked) [Example 280, 4-Amino-7-fluoro-N-(2-(trifluoromethyl)-5,8-dihydro-6H-pyrano[3,4-b]pyridin-5-yl)imidazo[1,5-a]quinoxaline-8-carbohydrazide]	10.9	
CNN(C(=O)c1cc2c(cc1C)nc(N)c1cncn12)C1COCc2c1ccn1c(C(F)(F)F)cnc21 (centres unmarked) [Example 281, 4-Amino-N',7-dimethyl-N-(3-(trifluoromethyl)-7,10-dihydro-8H-imidazo[1,2-a]pyrano[3,4-c]pyridin-7-yl)imidazo[1,5-a]quinoxaline-8-carbohydrazide]	12.7	
CNN(C(=O)c1cc2c3c(c(N)nc2cn1)COC3)C1COCc2nc(C(F)(F)F)ccc21 (centres unmarked) [Example 286, 4-Amino-N'-methyl-N-(2-trifluoromethyl-5,8-dihydro-6H-pyrano[3,4-b]pyridin-5-yl)-1,3-dihydrofuro[3,4-c] [1,7]naphthyridine-8-carbohydrazide]	10.5	
CNN(C(=O)c1cc2c3c(c(N)nc2cn1)COC3)C1COCc2cc(C(F)(F)F)ccc21 (centres unmarked) [Example 298, 4-Amino-N'-methyl-N-(7-(trifluoromethyl)isochroman-4-yl)-1,3-dihydrofuro[3,4-c][1,7]diazanaphthalene-8-carbohydrazide]	11.4	
[2H]C([2H])([2H])NN(C(=O)c1cc2c3c(c(N)nc2cn1)C(C)OC3)[C@@H]1COCc2nc(C(F)(F)F)ccc21 (some centres unmarked) [Example 322]	10.7	
[2H]C([2H])([2H])NN(C(=O)c1cc2c3c(c(N)nc2cn1)COC3)C1([2H])COCc2c1ccn1c(C(F)(F)F)cnc21 (centres unmarked) [Example 354, 4-Amino-N'-(methyl-d3)-N-(3-(trifluoromethyl)-7,10-dihydro-8H-imidazo[1,2-a]pyrano[3,4-c]pyridin-7-yl-7-d)-1,3-dihydrofuro[3,4-c][1,7]naphthyridine-8-carbohydrazide]	10.8	
[2H]C([2H])([2H])NN(C(=O)c1cc2c3c(c(N)nc2cn1)C(C)OC3)C1COCc2c1ccn1c(C(F)(F)F)cnc21 (centres unmarked) [Example 362, 4-Amino-3-methyl-N'-(trideuteriomethyl)-N-(3-trifluoromethyl-7,10-dihydro-8H-imidazo[1,2-a]pyrano[3,4-c]pyridin-7-yl)-1,3-dihydrofuro[3,4-c] naphthyridine-8-carbohydrazide]	11.2	
Nc1nc2cnc(C(=O)N(N)C3COCc4c3ccn3c(C(F)(F)F)cnc43)cc2c2c1COC2 (centres unmarked) [Example 424, 4-Amino-N-(3-(trifluoromethyl)-7,10-dihydro-8H-imidazo[1,2-a]pyrano[3,4-c]pyridin-7-yl)-1,3-dihydrofuro[3,4-c][1,7]naphthyridine-8-carbohydrazide]		AUC(0-inf) [2]: 2380 ng·h/mL; Cmax [2]: 226 ng/mL; MRT inf [2]: 8.9 h; Tmax [2]: 2.7 h; half-life [2]: 6.1 h
